In the test the target is T1, recombinant human FLAP protein (Homo sapiens, UniProt P20292).
T1 construct: made in house; host or cells: Sf9 insect cells (membrane fraction, 100,000 x g pellet)
T1 sequence (P20292 1-161): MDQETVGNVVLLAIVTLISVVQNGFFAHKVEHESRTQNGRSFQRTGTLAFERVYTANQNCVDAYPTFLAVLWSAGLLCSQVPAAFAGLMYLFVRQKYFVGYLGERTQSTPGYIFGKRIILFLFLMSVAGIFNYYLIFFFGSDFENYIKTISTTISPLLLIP
The test can be described thus: FLAP binding assay (SPA, displacement of [125I]L-691,831). The following applies: membranes of sf9 cells expressing human FLAP, [125I]L-691,831 probe; read-out: hFLAP binding IC50. As to the method: Compounds are assessed for the ability to bind to FLAP in a binding assay that measures compound-specific displacement of an iodinated (^125I) FLAP inhibitor via a Scintillation Proximity Assay format (adapted from S. Charleson et al., Mol. Pharmacol., 1992, 41, 873-879).
Cell pellets produced from sf9 insect cells expressing recombinant human FLAP protein are resuspended in buffer A [15 mM Tris-HCl (pH 7.5), 2 mM MgCl2, 0.3 mM EDTA, 1 mM PMSF]. The cells are lysed with a Dounce homogenizer and the material is centrifuged at 10,000×g for 10 minutes. The supernatant is then collected and centrifuged at 100,000×g for 60 minutes. To prepare membrane protein for an assay, an aliquot of the 100,000×g pellet is resuspended in 1 ml of buffer A, Dounce homogenized, and finally subjected to polytron mixing (30 seconds). Membrane protein (25 μl, 5 μg) is mixed with WGA SPA beads (Amersham) and stirred for 1 h. To an assay plate (Perkin Elmer FlexiPlate) is added 25 μl of test compound prepared in Binding buffer [100 mM Tris (pH 7.5), 140 mM NaCl, 5% glycerol, 2 mM EDTA, 0.5 mM TCEP, 0.05% Tween 20], 25 μl of [^125I]L-691,831 (an iodinated analog of MK-591, Charleson et al. Mol. Pharmacol., 41, 873-879, 1992) and finally 50 μl of the bead/protein mixture. (final concentrations: beads, 200 μg/well; protein, 5μg/well; [^125I] probe, 0 08 nM/well(17 nCi/well). The plates are shaken for 2 h before reading on a Microbeta plate reader. Non-specific binding is determined by the addition of 10 μM cold L-691,831 compound.
Usually IC50 stands for the midpoint of a concentration-inhibition curve. For the compound `CCCCCc1ccnc(NC(=O)C2(c3ccc(-c4cnc(N)nc4)cc3)CCOCC2)c1` [Example 161, 4-[4-(2-aminopyrimidin-5-yl)phenyl]-N-(4-pentylpyridin-2-yl)tetrahydro-2H-pyran-4-carboxamide], the 50% inhibitory concentration (IC50) was 31 nM.

On to `Cn1c(=O)c2cc(NC(=O)C3(c4ccc(-c5cnc(N)nc5)cc4)CCOCC3)cnc2n(C)c1=O` [Example 69, 4-[4-(2-aminopyrimidin-5-yl)phenyl]-N-(1,3-dimethyl-2,4-dioxo-1,2,3,4-tetrahydropyrido[2,3-d]pyrimidin-6-yl)tetrahydro-2H-pyran-4-carboxamide], for which the IC50 worked out at 260 nM.

Turning to `Nc1ncc(-c2ccc(C3(C(=O)Nc4cc(-c5cccnc5)no4)CCOCC3)cc2)cn1` [Example 57, 4-[4-(2-aminopyrimidin-5-yl)phenyl]-N-[3-(pyridin-3-yl)-1,2-oxazol-5-yl]tetrahydro-2H-pyran-4-carboxamide], the IC50 came out at 260 nM.

As for `CS(=O)(=O)NC(=O)c1ccc(NC(=O)C2(c3ccc(-c4cnc(N)nc4)cc3)CCC2)nc1` [Example 105, 6-[({1-[4-(2-aminopyrimidin-5-yl)phenyl]cyclobutyl}carbonyl)amino]-N-(methylsulfonyl)pyridine-3-carboxamide], the half-maximal inhibitory concentration (IC50) came to 17.5 nM.

In the case of `Nc1ncc(-c2ccc(C3(C(=O)Nc4ccc5c(c4)OCO5)CCOCC3)cc2)cn1` [Example 9, 4-[4-(2-aminopyrimidin-5-yl)phenyl]-N-(1,3-benzodioxol-5-yl)tetrahydro-2H-pyran-4-carboxamide], the concentration for half-maximal inhibition (IC50) came out at 200 nM.

In the case of `Cc1ccnc(NC(=O)C2(c3ccc(-c4cnc(N)nc4)cc3)CCOCC2)c1` [Example 140, 4-[4-(2-aminopyrimidin-5-yl)phenyl]-N-(4-methylpyridin-2-yl)tetrahydro-2H-pyran-4-carboxamide], the IC50 came out at 230 nM.

As for `CC(=O)Nc1ccc(-c2ccc(C3(C(=O)Nc4ccc(-c5csc(C)n5)cn4)CCOCC3)cc2)cn1` [Example 206, 4-{4-[6-(acetylamino)pyridin-3-yl]phenyl}-N-[5-(2-methyl-1,3-thiazol-4-yl)pyridin-2-yl]tetrahydro-2H-pyran-4-carboxamide], the IC50 turned out to be 270 nM.

For `Nc1ncc(-c2ccc(C3(C(=O)Nc4ccc5c(c4)CCC5)CCOCC3)cc2)cn1` [Example 6, 4-[4-(2-aminopyrimidin-5-yl)phenyl]-N-(2,3-dihydro-1H-inden-5-yl)tetrahydro-2H-pyran-4-carboxamide], the half-maximal inhibitory concentration (IC50) came out at 150 nM.

With `Nc1ncc(-c2ccc(C3(C(=O)Nc4cccc(S(=O)(=O)N5CCOCC5)c4)CCOCC3)cc2)cn1` [Example 35, 4-[4-(2-aminopyrimidin-5-yl)phenyl]-N-[3-(mopholin-4-ylsulfonyl)phenyl]tetrahydro-2H-pyran-4-carboxamide], the IC50 is 390 nM.

In the case of `Nc1ncc(-c2ccc(C3(C(=O)Nc4ccc(Cc5ccncc5)cc4)CCOCC3)cc2)cn1` [Example 28, 4-[4-(2-aminopyrimidin-5-yl)phenyl]-N-[4-(pyridin-4-ylmethyl)phenyl]tetrahydro-2H-pyran-4-carboxamide], the IC50 came to 121 nM.

Turning to `Cc1nc(NC(=O)C2(c3ccc(-c4cnc(N)nc4)cc3)CCC2)sc1C` [Example 209, 1-[4-(2-aminopyrimidin-5-yl)phenyl]-N-(4,5-dimethyl-1,3-thiazol-2-yl)cyclobutanecarboxamide], the IC50 was 13 nM.

Turning to `CC(C)C(C)(C(=O)Nc1ccncc1)c1ccc(-c2ccc(NCCO)nc2)cc1` (centres unmarked) [Example 226, 2-(4-{6-[(2-hydroxyethyl)amino]pyridin-3-yl}phenyl)-2,3-dimethyl-N-(pyridin-4-yl)butanamide], the IC50 is 250 nM.

`Nc1ncc(-c2ccc(C3(C(=O)Nc4cc(-c5ccccn5)no4)CCOCC3)cc2)cn1` [Example 56, 4-[4-(2-aminopyrimidin-5-yl)phenyl]-N-[3-(pyridin-2-yl)-1,2-oxazol-5-yl]tetrahydro-2H-pyran-4-carboxamide]: the IC50 worked out at 380 nM.

With `Nc1ncc(-c2ccc(C3(C(=O)Nc4cc(C(F)(F)F)ccn4)CCOCC3)cc2)cn1` [Example 31, 4-[4-(2-aminopyrimidin-5-yl)phenyl]-N-[4-(trifluoromethyl)pyridin-2-yl]tetrahydro-2H-pyran-4-carboxamide], the concentration for half-maximal inhibition (IC50) was 140 nM.

Consider `Cc1ccc(NC(=O)C2(c3ccc(-c4cnc(N)nc4)cc3)CCOCC2)nc1` [Example 139, 4-[4-(2-aminopyrimidin-5-yl)phenyl]-N-(5-methylpyridin-2-yl)tetrahydro-2H-pyran-4-carboxamide], for which the IC50 worked out at 110 nM.

Regarding `Nc1ncc(-c2ccc(C3(C(=O)Nc4ccc(O)c(C(=O)O)c4)CCC3)cc2)cn1` [Example 101, 5-[({1-[4-(2-aminopyrimidin-5-yl)phenyl]cyclobutyl}carbonyl)amino]-2-hydroxybenzoic acid], the concentration for half-maximal inhibition (IC50) was determined as 47 nM.

`CC(C)(O)c1ccc(NC(=O)C2(c3ccc(-c4cnc(N)nc4)cc3)CCOCC2)nc1` [Example 159, 4-[4-(2-aminopyrimidin-5-yl)phenyl]-N-[5-(2-hydroxypropan-2-yl)pyridin-2-yl]tetrahydro-2H-pyran-4-carboxamide]: the IC50 amounted to 420 nM.

As to `CN(C)S(=O)(=O)c1cccc(NC(=O)C2(c3ccc(-c4cnc(N)nc4)cc3)CCOCC2)c1` [Example 77, 4-[4-(2-aminopyrimidin-5-yl)phenyl]-N-[3-(dimethylsulfamoyl)phenyl] tetrahydro-2H-pyran-4-carboxamide], the IC50 stood at 110 nM.

On to `Nc1ncc(-c2ccc(C3(C(=O)Nc4ccc(C(=O)O)cn4)CCOCC3)cc2)cn1` [Example 157, 6-[({4-[4-(2-aminopyrimidin-5-yl)phenyl]tetrahydro-2H-pyran-4-yl}carbonyl)amino]pyridine-3-carboxylic acid], for which the IC50 turned out to be 410 nM.

On to `COc1nc(-c2ccc(C3(C(=O)Nc4ccc(-c5csc(C)n5)cn4)CCOCC3)cc2)cnc1N` [Example 181, 4-[4-(5-amino-6-methoypyrazin-2-yl)phenyl]-N-[5-(2-methyl-1,3-thiazol-4-yl)pyridin-2-yl]tetrahydro-2H-pyran-4-carboxamide], for which the IC50 worked out at 110 nM.

`Nc1ncc(-c2ccc(C3(C(=O)Nc4ccc(C(=O)O)cn4)CCC3)cc2)cn1` [Example 96, 6-[({1-[4-(2-aminopyrimidin-5-yl)phenyl]cyclobutyl}carbonyl)amino]pyridine-3-carboxylic acid]: the IC50 was determined as 26 nM.

On to `Nc1ncc(-c2ccc(C3(C(=O)Nc4ccnc(O)c4)CCC3)cc2)cn1` [Example 220, 1-[4-(2-aminopyrimidin-5-yl)phenyl]-N-(2-hydroxypyridin-4-yl)cyclobutanecarboxamide], for which the IC50 was determined as 470 nM.

On to `Cc1cccc(-c2cnc(NC(=O)C3(c4ccc(-c5cnc(N)nc5)cc4)CCOCC3)nc2)c1` [Example 156, 4-[4-(2-aminopyrimidin-5-yl)phenyl]-N-[5-(3-methylphenyl)pyrimidin-2-yl]tetrahydro-2H-pyran-4-carboxamide], for which the IC50 is 490 nM.

Take `Cc1cnc(NC(=O)C2(c3ccc(-c4cnc(N)nc4)cc3)CCC2)s1` [Example 211, 1-[4-(2-aminopyrimidin-5-yl)phenyl]-N-(5-methyl-1,3-thiazol-2-yl)cyclobutanecarboxamide]: the half-inhibitory concentration (IC50) came to 23.5 nM.

In the case of `Nc1ncc(-c2ccc(C3(C(=O)Nc4ccc(N5CCOCC5)cc4)CCC3)cc2)cn1` [Example 246, 1-[4-(2-aminopyrimidin-5-yl)phenyl]-N-[4-(morpholin-4-yl)phenyl]cyclobutanecarboxamide], the IC50 worked out at 34 nM.

With `CC(=O)N1CCc2ccc(NC(=O)C3(c4ccc(-c5cnc(N)nc5)cc4)CCOCC3)cc21` [Example 29, N-(1-acetyl-2,3-dihydro-1H-indol-6-yl)-4-[4-(2-aminopyrimidin-5-yl)phenyl]tetrahydro-2H-pyran-4-carboxamide], the half-inhibitory concentration (IC50) turned out to be 190 nM.

For the compound `Nc1ncc(-c2ccc(C3(C(=O)Nc4n[nH]c(-c5ccccc5)n4)CCC3)cc2)cn1` [Example 243, 1-[4-(2-aminopyrimidin-5-yl)phenyl]-N-(5-phenyl-1H-1,2,4-triazol-3-yl)cyclobutanecarboxamide], the IC50 was determined as 22 nM.

For `Cc1cc(NC(=O)C2(c3ccc(-c4cnc(N)nc4)cc3)CCC2)nc(C)n1` [Example 212, 1-[4-(2-aminopyrimidin-5-yl)phenyl]-N-(2,6-dimethylpyrimidin-4-yl)cyclobutanecarboxamide], the IC50 was determined as 15 nM.

For the compound `Cc1cc(C)nc(NC(=O)C2(c3ccc(-c4cnc(N)nc4)cc3)CCOCC2)c1` [Example 10, 4-[4-(2-aminopyrimidin-5-yl)phenyl]-N-(4,6-dimethylpyridin-2-yl)tetrahydro-2H-pyran-4-carboxamide], the IC50 is 240 nM.

For the origin of these results see US9073895B2 (Boehringer Ingelheim International GmbH, priority 2010, dated 2015).
